Measurements taken from patent publication US12570614B2, “Phenyl amino pyrimidine compounds and uses thereof” (GlaxoSmithKline LLC, priority 2007, dated 2026).

Columns and labels:
Ba/F3 TelJAK2 cells = assay: Subcutaneous tumour model of Ba/F3 TelJAK2 cells in nude mice; format: in vivo, mouse; conditions: for tumour volumes compared to Vehicle Control Treated Group: after 14 days of dosing; for mean percentage T/C: dosing day 14
Procedure: Dosing commenced 11 days post-tumour cell inoculation, when tumours were palpable (mean tumour volume of 6 mm^3). Tumour dimensions were measured twice weekly.

[1] = tested on: growth hormone-stimulated insulin-like growth factor-1 (IGF-1); assay: Growth hormone-stimulated IGF-1 concentrations in mouse plasma; format: in vivo; conditions: female C3/H mice, 50 mg/kg oral gavage 8 h and 30 min prior to GH, 6 h post-GH
Procedure: Blood samples were collected 6 h post-GH administration, and plasma IGF-1 concentrations measured using an ELISA for mouse IGF-1 (R & D Systems). Different superscripts denote significant differences (p<0.05) between groups detected by one-way ANOVA and Bonferroni's test post-hoc.

[2] = tested on: STAT5 phosphorylation in HEL 92.1.7 cells; assay: Western blot of STAT5 phosphorylation in HEL cells; format: cell-based, human; conditions: 2 hours
Procedure: The Western blots were treated with a STAT5 phosphospecific antibody and exposed to film for 5 minutes (top blot) and 1 minute (middle blot).
The human erythroleukemic cell line HEL 92.1.7 was routinely maintained in RPMI 1640 media containing 10% FCS. The day before the experiment, cells were washed twice in PBS, resuspended in RPMI 1640 media containing 1% FCS, and cultured overnight.
Cells were then placed on ice and washed twice in ice-cold PBS. Washed cell pellets were snap-frozen in liquid nitrogen and stored at −80° C.
Cell pellets were lysed on ice in RIPA buffer, and lysates clarified by centrifugation (20,000×g, 4° C., 5 min). The protein concentration of lysates was determined by the Bradford method, and equal amounts of protein (60 μg/lane) were separated by SDS-PAGE. Protein was then transferred to PVDF, and Western blotting performed using an antibody that specifically recognizes STAT5 phosphorylated at tyrosine 694. The membrane was then stripped and reprobed with an antibody that recognizes total STAT5 protein.

[3] = tested on: STAT5 phosphorylation in HEL 92.1.7 cells; assay: Intracellular flow cytometric (FACS) analysis of STAT5 phosphorylation in HEL cells; format: cell-based, human; conditions: HEL 92.1.7 cells, 0.25, 0.5, 1, or 2 μM, 2 hours
Procedure: After treatment the cells were stained with mouse monoclonal anti-STAT5 (Y694) PE antibody and analyzed using fluorescence activated cell sorting (FACS). The histograms are shaded according to the fold change in median fluorescence relative to the isotype control (Isocont lane in clear outline).
The human erythroleukemic cell line, HEL 92.1.7 (ATCC, TIB-180), was grown in RPMI 1640 containing 10% PCS supplemented with 1 mM sodium pyruvate. For phosphor-STAT 5 determination, HEL cells were grown in RPMI 1640+1% PCS for 18 hours at 37° C. and 2×10^5 cells per assay point were exposed to DMSO/test compounds for 2 hours at 37° C. The cells were centrifuged at 1300 rpm for 3 minutes and fixed in paraformaldehyde (2% final concentration) for 15 minutes at 37° C. After centrifugation, cells were permeabilized in 90% methanol at 4° C. for 30 minutes. […]
Staining proceeded for 1 hour at room temperature in the dark, followed by 3 washes in PBS-2% FCS. […] The median fluorescence intensity (MFI) was used to determine fold change upon treatment of cells with specific inhibitor compounds, calculated as the MFIstimulated/MFIunstimulated ratio for the phosphospecific antibody fluorescence channel (FL2).

## N#CCNC(=O)c1ccc(-c2ccnc(Nc3ccc(N4CCOCC4)cc3)n2)cc1 [Compound 3, N-(cyanomethyl)-4-(2-(4-morpholinophenyl-amino)pyrimidin-4-yl)benzamide]
Ba/F3 TelJAK2 cells; 5 mg/kg
  tumour volumes compared to Vehicle Control Treated Group: not different
Ba/F3 TelJAK2 cells; 5 mg/kg/day oral gavage
  mean percentage T/C: 82%
Ba/F3 TelJAK2 cells; 10 mg/kg b.i.d. oral gavage
  mean percentage T/C: 25%
Ba/F3 TelJAK2 cells; 10 mg/kg b.i.d., t-test p<0.05
  tumour volumes compared to Vehicle Control Treated Group: smaller tumour volumes
Ba/F3 TelJAK2 cells; 20 mg/kg b.i.d. oral gavage
  mean percentage T/C: 39%
Ba/F3 TelJAK2 cells; 20 mg/kg b.i.d., t-test p<0.05
  tumour volumes compared to Vehicle Control Treated Group: smaller tumour volumes
[1]
  plasma IGF-1 concentration: marked decrease
[2]
  effect on STAT5 phosphorylation (Western blot): decrease in STAT5 phosphorylation
[3]
  effect on STAT5 phosphorylation (FACS): dose-dependent effect
